The supplement of paper PMC10307832

What was measured:
Assay in all cases: relative viability (nuclei count vs DMSO), 5 days (fraction); higher = more cells survive
[1] = compound: Cn1nnc2c(C(N)=O)ncn2c1=O [Temozolomide] + CCNC(=O)c1noc(-c2cc(C(C)C)c(O)cc2O)c1-c1ccc(CN2CCOCC2)cc1 [Luminespib] (partner 0.01 µM)
Method in brief: (§1)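 Dosing by pin tool came one day after lung cancer cell lines were seeded in 1536-well plates, using either one drug or a fixed anchor-drug dose plus five library-drug doses (not always all listed) in √10 steps. After 5 days, nuclei were counted on 4× images. Relative viability is treated-well nuclei count divided by vehicle-well nuclei count, and values are medians of duplicate plates.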

AZD5582 + Vorinostat = compound: C[C@@H](C(=O)N[C@@H](C1CCCCC1)C(=O)N2CCC[C@H]2C(=O)N[C@@H]3[C@@H](CC4=CC=CC=C34)OCC#CC#CCO[C@@H]5CC6=CC=CC=C6[C@@H]5NC(=O)[C@@H]7CCCN7C(=O)[C@H](C8CCCCC8)NC(=O)[C@H](C)NC)NC [AZD5582] + O=C(CCCCCCC(=O)Nc1ccccc1)NO [Vorinostat] (partner 1 µM)
Method in brief: as §1

Temozolomide + Olaparib = compound: Cn1nnc2c(C(N)=O)ncn2c1=O [Temozolomide] + O=C(c1cc(Cc2n[nH]c(=O)c3ccccc23)ccc1F)N1CCN(C(=O)C2CC2)CC1 [Olaparib] (partner 8 µM)
Method in brief: as §1

[2] = compound: Cn1nnc2c(C(N)=O)ncn2c1=O [Temozolomide] + C[C@]1(O)C[C@@H](c2nc(-c3ccc4ccc(-c5ccccc5)nc4c3)c3c(N)nccn32)C1 [Linsitinib] (partner 1 µM)
Method in brief: as §1

Row | Cell Line | relative viability ([1]; first compound 0.2 µM) | relative viability ([1]; first compound 0.6325 µM) | relative viability ([1]; first compound 2 µM) | relative viability ([1]; first compound 6.325 µM) | relative viability ([1]; first compound 20 µM) | relative viability (AZD5582 + Vorinostat; first compound 0.001581 µM) | relative viability (AZD5582 + Vorinostat; first compound 0.005 µM) | relative viability (AZD5582 + Vorinostat; first compound 0.01581 µM) | relative viability (AZD5582 + Vorinostat; first compound 0.05 µM) | relative viability (Temozolomide + Olaparib; first compound 0.2 µM) | relative viability (Temozolomide + Olaparib; first compound 0.6325 µM) | relative viability (Temozolomide + Olaparib; first compound 2 µM) | relative viability (Temozolomide + Olaparib; first compound 6.325 µM) | relative viability (Temozolomide + Olaparib; first compound 20 µM) | relative viability ([2]; first compound 0.2 µM) | relative viability ([2]; first compound 0.6325 µM) | relative viability ([2]; first compound 2 µM) | relative viability ([2]; first compound 6.325 µM) | relative viability ([2]; first compound 20 µM)
1 | ABC-1 | 0.507 | 0.439 | 0.788 | 0.551 | 0.553 | 1.22 | 1.57 | 0.934 | 1.08 | 0.921 | 0.673 | 1.09 | 0.85 | 0.696 | 0.899 | 0.83 | 0.943 | 0.716 | 0.771
2 | NCI-H2405 | 0.67 | 0.77 | 0.817 | 0.513 | 0.751 | 1.04 | 1.1 | 0.88 | 1.11 | 0.896 | 0.831 | 0.998 | 0.832 | 0.492 | 0.707 | 0.924 | 1.09 | 0.858 | 0.95
3 | IA-LM |  |  |  |  |  | 0.772 | 0.907 |  | 1 | 0.908 | 0.744 | 0.86 | 0.759 | 0.694 | 0.941 | 0.518 | 0.664 | 0.548 | 0.909
4 | NCI-H1355 | 0.814 | 0.726 | 0.764 | 0.684 | 0.641 | 0.568 | 0.711 | 0.535 | 0.596 | 0.743 | 0.753 | 0.723 | 0.646 | 0.617 | 0.713 | 0.859 | 0.796 | 0.883 | 0.794
5 | NCI-H2085 | 0.476 | 0.415 | 0.41 | 0.449 | 0.487 | 0.82 | 1 | 0.73 | 0.917 | 0.773 | 0.765 | 0.797 | 0.677 | 0.491 | 0.865 | 0.919 | 0.788 | 0.994 | 0.84
6 | HOP-62 | 0.839 | 0.88 | 0.988 | 0.93 | 0.968 | 0.506 | 0.663 | 0.41 | 0.547 | 0.407 | 0.31 | 0.429 | 0.277 | 0.129 | 1.05 | 1.01 | 0.895 | 0.832 | 0.866
7 | HCC-366 |  |  |  |  |  | 0.239 | 0.398 | 0.186 | 0.425 | 0.413 | 0.344 | 0.318 | 0.311 | 0.17 | 0.607 | 0.708 | 0.72 | 0.709 | 0.762
8 | SW 900 | 0.163 | 0.175 | 0.169 | 0.131 | 0.149 | 0.435 | 0.444 | 0.364 | 0.295 | 1.02 | 1.05 | 0.871 | 0.946 | 0.776 |  |  |  |  | 
9 | NCI-H1650 | 0.187 | 0.205 | 0.178 | 0.189 | 0.217 | 0.528 | 0.534 | 0.576 | 0.572 | 0.854 | 0.795 | 0.776 | 0.672 | 0.703 |  |  |  |  | 
10 | Calu-6 |  |  |  |  |  |  |  |  |  | 0.787 | 0.603 | 0.6 | 0.484 | 0.259 | 0.929 | 0.941 | 1.17 | 0.971 | 1.02
11 | NCI-H1623 |  | 0.488 | 0.416 | 0.361 | 0.519 |  |  |  |  |  |  |  |  |  |  |  |  |  | 
12 | HCC-78 |  |  |  |  |  | 0.414 | 0.493 | 0.438 | 0.366 | 0.676 | 0.778 | 0.855 |  | 0.471 | 0.387 | 0.618 | 0.668 | 0.67 | 0.529
13 | NCI-H1563 | 0.472 | 0.499 | 0.525 | 0.533 | 0.487 |  |  |  |  |  |  |  |  |  | 1.14 | 1.26 | 1.39 | 1.23 | 1.22
14 | NCI-H2170 |  | 0.7 | 0.749 | 0.478 | 0.359 | 0.683 | 0.834 | 0.787 | 0.91 |  | 0.514 | 0.466 | 0.245 | 0.137 |  |  |  |  | 
15 | NCI-H1299 |  |  |  |  |  |  |  |  |  | 1 | 0.99 | 0.957 | 0.923 | 0.967 | 0.994 | 0.961 | 1.16 | 1 | 1.02
16 | EBC-1 |  |  |  |  |  |  |  |  |  | 0.765 | 0.663 | 0.795 | 0.666 | 0.5 | 1.03 | 0.885 | 1.13 | 0.912 | 0.947
17 | A549 |  |  |  |  |  |  |  |  |  | 0.358 | 0.344 | 0.345 | 0.17 | 0.117 | 0.348 | 0.684 | 0.759 | 0.517 | 0.467
18 | NCI-H522 | 0.877 | 1.21 | 0.981 | 1.18 | 1.05 | 0.764 | 0.827 | 0.828 | 0.957 | 0.64 | 0.543 | 0.762 | 0.574 | 0.469 |  |  |  |  | 
19 | NCI-H1792 | 0.412 | 0.436 | 0.44 | 0.493 | 0.508 |  |  |  |  | 0.31 | 0.388 | 0.251 | 0.361 | 0.31 | 0.363 | 0.586 | 0.498 | 0.475 | 0.481
